Patent publication US6113896A, “Pharmaceutical compositions containing ecotin and homologs thereof” (priority 1994, dated 2000)
Values joined by “and” are separate entries in the source; they are usually repeats but may differ in a detail not shown here. Equal entries are not always repeated. “Also recorded” adds a separate entry of the source.

Assays:
FXa = assay: Specificity assay, FXa; format: biochemical, human; conditions: 100 nM inhibitor, ~1 h, 1.2 nM enzyme
Protocol: (§1) Specificity Assays The following assays were used to test the specificity of ecotin and the M84K and M84R mutants against various proteases. Ecotin, M84K, M84R (100 nM each), or a control blank were incubated at room temperature for ~1 h with each enzyme. The enzymes tested (enzyme concentration, buffer, substrate) were FXa (1.2 nM, Buffer A, 0.7 mM Spectrozyme fXa), thrombin (3.7 nM, Buffer A, 0.7 mM S2366), TF.cndot.FVIIa (12.0 nM, Buffer B, 0.7 mM S2366), FXIa (1.2 nM, Buffer A containing 1 mg/ml BSA, 0.7 mM S2366), activated protein C (4.3 nM, Buffer A, 0.7 mM S2366), plasmin (15 nM, Buffer A, 1 mM S2251), single chain t-PA (15 nM, Buffer A, 2.5 mM S2288), Factor XIIa (10 nM, Buffer A, 0.5 mM S2302, plasma kallikrein (10 nM, Buffer A, 0.5 mM S2302), HLE (17 nM, 0.1 M Tris, pH 7.5, 0.5 M NaCl and 0.005 % Triton X-100, 0.42 mM MeOSuc-AAPV-pNA) (SEQ ID NO:9), bovine trypsin (10 nM, Buffer A, 0.25 mM Spectrozyme fXa), and bovine chymotrypsin (10 nM, Buffer A, 1 mM Suc-AAPF-pNA) (SEQ ID NO:10). Buffer A contains 50 mM Tris, pH 7.5, 100 mM NaCl, 2 mM CaCl2 and 0.005% Triton X-100. Buffer B contains 50 mM Tris, pH 7.5, 100 mM NaCl, 10 mM CaCl2, 0.5% BSA, 60 nM TF1-243,and 1 mM CHAPS. The initial change in absorbance at 405 nm was monitored after addition of substrate. Controls lacking inhibitor and/or enzyme were also assayed to assess the uninhibited rates and the background substrate hydrolysis rates, respectively.

HLE = assay: Specificity assay, HLE; format: biochemical, human; conditions: for Percent Activity of HLE: 100 nM inhibitor, ~1 h, 17 nM enzyme
Protocol: as §1

single chain t-PA = assay: Specificity assay, single chain t-PA; format: biochemical, human; conditions: for Percent Activity of t-PA: 100 nM inhibitor, ~1 h, 15 nM enzyme
Protocol: as §1

thrombin = assay: Specificity assay, thrombin; format: biochemical, human; conditions: for Percent Activity of Thrombin: 100 nM inhibitor, ~1 h, 3.7 nM enzyme
Protocol: as §1

human FXa = assay: Equilibrium inhibition constant with Factor Xa (tight-binding analysis); format: biochemical; conditions: for inhibition of FXa, in words: compared with wild type
Protocol: Determination of Equilibrium Inhibition Constants Apparent Ki values (Ki *) for the inhibition of the enzymes tested by ecotin and mutants were measured as follows. All reactions were performed at 25° C. Stock solutions of trypsin were quantitated by active site burst titration with MUGB as previously described (Jameson, G. W. et al., Biochem. J. 131:107-117 [1973]) using a Fluoroskan II plate reader at excitation wavelength of 355 nm and emission wavelength of 460 nm. Data was collected on a Macintosh SE20 using either Delta Soft II Fl v3.31 software (BioMetallics). Active site titrated trypsin was then used to quantitate ecotin active sites using BAPA as the substrate; a stoichiometry of 1:1 was assumed (Chung, C. H. et al., supra). Factor Xa, Factor XIIa, plasma kallikrein, or HLE were then quantitated by active site titration using ecotin as a standard, again assuming 1:1 stoichiometry. In addition, the concentration of HLE was quantitated by methods previously described using a calibrated stock of α1 -proteinase inhibitor to titrate the HLE active sites (Beatty, K. et al., J. Biol. Chem. 255:3931-3934 [1980]); the same HLE active site concentration was determined using both ecotin and α1 -proteinase inhibitor. The substate for FXa was Spectrozyme fXa (0.5 mM); the substrate for FXIIa (0.5 mM) and plasma kallikrein was S2302 (0.5 mM); the substrate for HLE was MeOSuc-Ala-Ala-Pro-Val-pNA (0.4 mM). There was good agreement upon comparison of the protein concentrations determined by amino acid analysis, Bradford analysis (Bradford, M. M. Anal. Biochem. 72:248-254 (1976) or active site titrations for trypsin, ecotin, FXa, FXIIa, plasma kallikrein, and HLE.
Therefore, apparent equilibrium dissociation values (Ki *) were determined using methods derived for tight-binding inhibitors (Morrison, J. F. Biochim. Biophys. Acta 185:269-286 [1969]), (Bieth, J. in Proteinase Inhibitors (Fritz, H., Tschesche, H., Greene, L. J. and Truscheit, E., Ed.) pp 463-469, Springer-Verlag, New York [1974]). Data were fit by nonlinear regression analysis to equation 1 and values for Ki * were determined. [formula] where α is the fractional activity (steady-state inhibited rate divided by the uninhibited rate), [Eo ] is the total enzyme concentration, and [Io ] is the total ecotin concentration. Since the inhibitor and substrate compete for the same site, the true Ki value is related to Ki^* by the expression Ki =Ki */(1+[S]/Km), where Km is the Michaelis constant for the substrate, and [S] is the substrate concentration.
a. […] Following a 1 hour incubation at room temperature to reach equilibration of the enzyme.cndot.inhibitor complex, 20 μl of 5 mM Spectrozyme fXa was added, and the steady-state rate of product formation measured by monitoring the change in absorbance at 405 nm. The Km for Spectrozyme fXa with FXa under these conditions was determined to be 0.23 mM by linear regression analysis of Lineweaver-Burke plots.

FXIa = assay: Specificity assay, FXIa; format: biochemical, human; conditions: for Percent Activity of Factor XIa: 100 nM inhibitor, ~1 h, 1.2 nM enzyme
Protocol: as §1

TF·FVIIa = assay: Specificity assay, TF·FVIIa; format: biochemical, human; conditions: for Percent Activity of TF/Factor VIIa: 100 nM inhibitor, ~1 h, 12.0 nM enzyme
Protocol: as §1

plasmin = assay: Specificity assay, plasmin; format: biochemical, human; conditions: for Percent Activity of Plasmin: 100 nM inhibitor, ~1 h, 15 nM enzyme
Protocol: as §1

activated protein C = assay: Specificity assay, activated protein C; format: biochemical, human; conditions: for Percent Activity of Activated protein C: 100 nM inhibitor, ~1 h, 4.3 nM enzyme
Protocol: as §1

bovine chymotrypsin = assay: Specificity assay, bovine chymotrypsin; format: biochemical; conditions: for Percent Activity of Chymotrypsin: 100 nM inhibitor, ~1 h, 10 nM enzyme; for inhibition of bovine chymotrypsin, in words: text statement
Protocol: as §1

Factor XIIa = assay: Specificity assay, Factor XIIa; format: biochemical, human; conditions: for Percent Activity of Factor XIIa: 100 nM inhibitor, ~1 h, 10 nM enzyme
Protocol: as §1

[1] = text statement, listed as ecotin

Substance	Percent Activity of Factor Xa (FXa) [%]	Percent Activity of HLE (HLE) [%]	inhibition of HLE, in words (HLE; text statement)	Percent Activity of t-PA (single chain t-PA) [%]	inhibition of t-PA, in words (single chain t-PA; text statement)	Percent Activity of Thrombin (thrombin) [%]	inhibition of thrombin, in words (thrombin; text statement)	Percent Activity of Factor XIa (FXIa) [%]	inhibition of FXIa, in words (FXIa; text statement)	Percent Activity of TF/Factor VIIa (TF·FVIIa) [%]	inhibition of TF·FVIIa, in words (TF·FVIIa; text statement)	Percent Activity of Plasmin (plasmin) [%]	inhibition of plasmin, in words (plasmin; text statement)	Percent Activity of Activated protein C (activated protein C) [%]	inhibition of activated protein C, in words (activated protein C; text statement)	Percent Activity of Chymotrypsin (bovine chymotrypsin) [%]	Percent Activity of Factor XIIa (Factor XIIa) [%]	inhibition of FXIIa, in words (Factor XIIa; text statement)	inhibition of FXa, in words (human FXa)	inhibition of bovine chymotrypsin, in words (bovine chymotrypsin)	also measured
Ecotin: E. coli periplasmic protein having the 142 amino acid residue sequence reported by McGrath et al.; recombinant, P1 Met84	0	0	potently inhibited	100	did not effectively inhibit	98	did not effectively inhibit	79	did not effectively inhibit	99	did not effectively inhibit	100	did not effectively inhibit	99	did not effectively inhibit	0	0	potently inhibited	–	–	inhibition of t-PA, in words (single chain t-PA; [1]): little or no inhibition; also recorded: No inhibition; inhibition of thrombin, in words (thrombin; [1]): little or no inhibition; Ki (human FXa; apparent value, 0.5 mM Spectrozyme fXa, read-out: Ki* (apparent equilibrium dissociation value) with FXa): 0.054 nM and 0.047 nM; inhibition of FXIa, in words (FXIa; [1]): little or no inhibition; inhibition of TF·FVIIa, in words (TF·FVIIa; [1]): little or no inhibition; also recorded: No inhibition; also recorded: does not inhibit; inhibition of plasmin, in words (plasmin; [1]): little or no inhibition; inhibition of activated protein C, in words (activated protein C; [1]): little or no inhibition
M84K	2	85	effectively diminished inhibition; also recorded: no longer inhibited	100	Neither ecotin, the M84R or M84K mutants inhibited	16	significant inhibition	12	significant inhibition	92	Neither ecotin, the M84R or M84K mutants inhibited	9	significant inhibition	65	significant inhibition	1	0	still potently inhibited	slightly more potent as FXa inhibitors; also recorded: slightly more potent than the wild type inhibitor	significantly inhibited	inhibition of HLE, in words (HLE; listed as P1 Lys mutant): did not inhibit; inhibition of t-PA, in words (single chain t-PA; listed as P1 Lys mutant): did not inhibit; inhibition of thrombin, in words (thrombin; listed as P1 Lys mutant): significantly inhibited; inhibition of FXIa, in words (FXIa; listed as P1 Lys mutant): significantly inhibited; inhibition of TF·FVIIa, in words (TF·FVIIa; listed as P1 Lys mutant): did not inhibit; inhibition of plasmin, in words (plasmin; listed as P1 Lys mutant): significantly inhibited; inhibition of activated protein C, in words (activated protein C; listed as P1 Lys mutant): significantly inhibited; inhibition of FXIIa, in words (Factor XIIa; listed as P1 Lys mutant): significantly inhibited
M84R	1	88	effectively diminished inhibition; also recorded: no longer inhibited	100	Neither ecotin, the M84R or M84K mutants inhibited	4	significant inhibition	5	significant inhibition	87	Neither ecotin, the M84R or M84K mutants inhibited	10	significant inhibition	50	significant inhibition	0	1	still potently inhibited	slightly more potent as FXa inhibitors; also recorded: slightly more potent than the wild type inhibitor	significantly inhibited	inhibition of HLE, in words (HLE; listed as P1 Arg mutant): did not inhibit; inhibition of t-PA, in words (single chain t-PA; listed as P1 Arg mutant): did not inhibit; inhibition of thrombin, in words (thrombin; listed as P1 Arg mutant): significantly inhibited; inhibition of FXIa, in words (FXIa; listed as P1 Arg mutant): significantly inhibited; inhibition of TF·FVIIa, in words (TF·FVIIa; listed as P1 Arg mutant): did not inhibit; inhibition of plasmin, in words (plasmin; listed as P1 Arg mutant): significantly inhibited; inhibition of activated protein C, in words (activated protein C; listed as P1 Arg mutant): significantly inhibited; inhibition of FXIIa, in words (Factor XIIa; listed as P1 Arg mutant): significantly inhibited
